We go through 13 compounds from US20250163016A1, “PYRIDINE DERIVATIVE, PREPARATION METHOD THEREFOR AND USE THEREOF” (CHENGDU EASTON BIOPHARMACEUTICALS CO., LTD., priority 2022, published 2025).

This assay concerns the target T1, LSD1 (Homo sapiens, UniProt O60341).
T1 construct: purchased Active Motif 31432
Briefly: LSD1 activity test (HTRF). It is filed as biochemical. As to conditions: H3(1-21)K4 me1-biotin substrate, read-out: IC50, inhibitory activity on LSD1. On the procedure:
In this test, a homogeneous time resolved fluorescence (HTRF) technology was utilized, and the inhibitory activity of compounds on LSD1 was detected by adopting a two-step method. The first step was to incubate LSD1, compounds of different concentrations, and a biotin-labeled methylated polypeptide substrate (H3(1-21)K4 me1-biotin) at the room temperature for fixed time.
A corresponding solution with a 1000-fold final concentration was formed by dilution in a 384-well Source plate, and then Echo550 was used for transferring 10 nL to a 384-well reaction plate for being tested.
An inhibition percentage was calculated using a maximum value, a minimum value, and a signal value (maximum value: fluorescence intensity of 5 μL of 2× enzyme solution+5 μL of 2× substrate mixed solution+10 nL of 100% DMSO+10 μL of detection solution; minimum value: fluorescence intensity of 5 μL of 1× reaction solution+5 μL of 2× substrate mixed solution+10 nL of 100% DMSO+10 μL of detection solution; and signal value: fluorescence intensity of 5 μL of 2× enzyme solution+5 μL of 2× substrate mixed solution+10 nL of diluted compound to be tested+10 μL of detection solution), and a calculation formula was as follows: […]
Using a logarithm of the concentration as an X axis and the percentage inhibition rate as a Y axis, a dose-response curve was fitted using a formula log(inhibitor) vs. response-Variable slope (Four parameters) of analysis software Graphpad Prism 5 to obtain the IC50 value of each compound on the enzyme activity.
(Time-resolved FRET reads energy transfer from a long-lived donor to a nearby acceptor.)
`Cn1ncc2cc(-c3cc(C(N)=O)c(N4CCC(N)CC4)nc3-c3ccc(C#N)c(F)c3)ccc21` [Compound 11, 2-(4-aminopiperid-1-yl)-6-(4-cyano-3-fluorophenyl)-5-(1-methyl-1H-indazol-5-yl)nicotinamide]: the half-inhibitory concentration (IC50) turned out to be 1.5 nM. On to `CC(C)(O)Cn1ncc2cc(-c3c(C(N)=O)cc(N4CCC(N)CC4)nc3-c3ccc(C#N)c(F)c3)c(F)cc21` [Compound 17, 6-(4-aminopiperid-1-yl)-2-(4-cyano-3-fluorophenyl)-3-(6-fluoro-1-(2-hydroxyl-2-methylpropyl)-1H-indazol-5-yl)isonicotinamide], for which the half-inhibitory concentration (IC50) was found to be 1.2 nM. With `Cn1ncc2cc(-c3cc(C(N)=O)c(N4CCCNCC4)nc3-c3ccc(C#N)c(F)c3)ccc21` [Compound 26, 6-(4-cyano-3-fluorophenyl)-2-(1,4-diaza-1-yl)-5-(1-methyl-1H-indazol-5-yl)nicotinamide], the IC50 is 2.9 nM. The same measure for `CC(C)(O)C(F)(F)c1ccc(-c2c(C#N)cc(N3CCC(N)CC3)nc2-c2ccc(C#N)c(F)c2)c(F)c1` [Compound 35, 6-(4-aminopiperid-1-yl)-2-(4-cyano-3-fluorophenyl)-3-(4-(1,1-difluoro-2-hydroxyl-2-methylpropyl)-2-fluorophenyl)isonicotinonitrile]: 2.2 nM; for `CN(C)C(=O)c1cc(-c2ccc3c(cnn3C)c2)c(-c2ccc(C#N)c(F)c2)nc1N1CCCNCC1` [Compound 27, 6-(4-cyano-3-fluorophenyl)-2-(1,4-diazaniline-1-yl)-N,N-dimethyl-5-(1-methyl-1H-indazol-5-yl)nicotinamide]: 3.3 nM. Turning to `CN1C(=O)C(F)(F)c2cc(-c3c(C#N)cc(N4CCC(N)CC4)nc3-c3ccc(C#N)c(F)c3)ccc21` [Compound 34, 6-(4-aminopiperid-1-yl)-2-(4-cyano-3-fluorophenyl)-3-(3,3-difluoro-1-methyl-2-oxoindol-5-yl)isonicotinonitrile], the half-maximal inhibitory concentration (IC50) stood at 1.5 nM. Take `CC(C)(O)Cc1ccc(-c2c(C#N)cc(N3CCC(N)CC3)nc2-c2ccc(C#N)c(F)c2)c(F)c1` [Compound 19, 6-(4-aminopiperid-1-yl)-2-(4-cyano-3-fluorophenyl)-3-(2-fluoro-4-(2-hydroxyl-2-methylpropyl)phenyl)isonicotinonitrile]: the IC50 was determined as 3.1 nM. The result for `COc1ccc(-c2c(C(N)=O)cc(N3CCC(N)CC3)nc2-c2ccc(C#N)c(F)c2)cc1F` [Compound 2, 6-(4-aminopiperid-1-yl)-2-(4-cyano-3-fluorophenyl)-3-(3-fluoro-4-methoxyphenyl)isonicotinamide] reads 4.8 nM; that for `Cn1ncc2cc(-c3c(C(N)=O)cc(N4CCC(N)CC4)nc3-c3ccc(C#N)c(F)c3)ccc21` [Compound 10, 6-(4-aminopiperid-1-yl)-2-(4-cyano-3-fluorophenyl)-3-(1-methyl-1H-indazol-5-yl)isonicotinamide], 0.81 nM.

As to `Cn1ncc2cc(-c3cc(C#N)c(N4CCC(N)CC4)nc3-c3ccc(C#N)c(F)c3)ccc21` [Compound 12, 2-(4-aminopiperid-1-yl)-6-(4-cyano-3-fluorophenyl)-5-(1-methyl-1H-indazol-5-yl)nicotinonitrile], the IC50 worked out at 4.4 nM. In the case of `Cn1ncc2cc(-c3cc(C(=O)NC4CC4)c(N4CCCNCC4)nc3-c3ccc(C#N)c(F)c3)ccc21` [Compound 28], the half-inhibitory concentration (IC50) is 2.3 nM. `CC(C)(O)Cn1ncc2cc(-c3c(-c4ccc(C#N)c(F)c4)nc(N4CCC(N)CC4)c4c3CNC4=O)c(F)cc21` [Compound 9, 4-(4-(4-aminopiperid-1-yl)-7-(6-fluoro-1-(2-hydroxyl-2-methylpropyl)-1H-indazol-5-yl)-3-oxo-2,3-dihydro-1H-pyrrole[3,4-c]pyrid-6-yl)-2-fluorobenzonitrile]: the IC50 was 0.72 nM.

`Cc1noc2cc(-c3c(C#N)cc(N4CCC(N)CC4)nc3-c3ccc(C#N)c(F)c3)c(F)cc12` [Compound 33, 6-(4-aminopiperid-1-yl)-2-(4-cyano-3-fluorophenyl)-3-(5-fluoro-3-tolueno[d]isoxazol-6-yl)isonicotinonitrile]: the IC50 was 0.34 nM.

What is called IC50 is the midpoint of a concentration-inhibition curve.
